These results are taken from patent US20120270954A1, “METHODS FOR MAINTAINING EYE HEALTH AND AMELIORATING OPTHALMIC MALADIES IN CANINES” (priority 2009, published 2012).

For data set [1] the following is noted: previous studies, humans regularly consume β-carotene in their diets; cited from earlier work.
The format of data set [2] is in vivo. The note with it: for Antioxidant level in Cortical/Epithelial Layer (C) of dog lens / Antioxidant level in Nuclear Layer (N) of dog lens: lenses of seven dogs. As for the experimental part: Eye samples were collected from seven (7) dogs. Eye balls were removed within 1 hour of death at necropsy, stored in individual containers at 4° C., and stored on wet ice for dissection within one day. The eyes were dissected to take out lenses. The lenses were separated into two layers: (1) an outer, soft cortical/epithelial layer and (2) an inner, hard nuclear layer. The layers were analyzed for carotenoids, vitamin C, and vitamin E following standard procedures given in Craft N E, Haitema T B, Garnett K M, Fitch K A, Dorey C K. Carotenoid, tocopherol, and retinol concentrations in elderly human brain. J Nutr. Health Aging 2004; 8:156-62.

Where two headings read alike, the source gives them in different places.

On to `CC1=C(/C=C/C(C)=C/C=C/C(C)=C/C=C/C=C(C)/C=C/C=C(C)/C=C/C2=C(C)CCCC2(C)C)C(C)(C)CCC1` [β-Carotene, β-carotene], for which the “detection or accumulation in human lenses” value in data set [1] is on record as “not detected or accumulated in human lenses”. The “β-Carotene concentration in lens layer” value in data set [2] (Dog 1, BEA, M/n, age 15.50, layer N) turned out to be 0.79 ng/g; in data set [2] (Dog 2, BEA, M/n, age 13.55, layer C), 1.06 ng/g; in data set [2] (Dog 2, BEA, M/n, age 13.55, layer N), 0.60 ng/g; in data set [2] (Dog 3, LAB, F/s, age 13.41, layer C) it was 0.73 ng/g; in data set [2] (Dog 3, LAB, F/s, age 13.41, layer N), 1.26 ng/g; in data set [2] (Dog 4, LAB, M/n, age 14.22, layer C), 0.71 ng/g. Further, the “β-Carotene concentration in lens layer” value in data set [2] (Dog 4, LAB, M/n, age 14.22, layer N) came to 0.79 ng/g; in data set [2] (Dog 5, Man T, F/s, age 12.79, layer C), 1.35 ng/g; in data set [2] (Dog 5, Man T, F/s, age 12.79, layer N), 1.60 ng/g; in data set [2] (Dog 6, SIB HUSKY, M/n, age 6.10, layer C) it was 4.26 ng/g; in data set [2] (Dog 6, SIB HUSKY, M/n, age 6.10, layer N) it was 8.17 ng/g; in data set [2] (Dog 7, LAB, F/s, age 9.31, layer C), 2.35 ng/g. For the same compound, in data set [2] (Dog 7, LAB, F/s, age 9.31, layer N), the “β-Carotene concentration in lens layer” value amounted to 5.99 ng/g. For the same compound, the “cortical layer samples that accumulated β-carotene” value in data set [2] (dog lens, cortical layer, seven dogs) is listed as “six out of seven cortical layer samples accumulated”. For the same compound, in data set [2] (dog lens, nuclear layer, seven dogs), the “nuclear layer samples that accumulated β-carotene” value is listed as “all nuclear layer samples accumulated”. Further, the “Antioxidant level in Cortical/Epithelial Layer (C) of dog lens” value in data set [2] amounted to 0.00174 µg/g. For the same compound, the “Antioxidant level in Nuclear Layer (N) of dog lens” value (“Antioxidant level in Nuclear Layer” for short) in data set [2] (nuclear layer) was determined as 0.00274 µg/g.

For the compound `O=C1O[C@H]([C@@H](O)CO)C(O)=C1O` [Vitamin C, vitamin C], the “Antioxidant level in Cortical/Epithelial Layer (C) of dog lens” value in data set [2] is 112.38 µg/g. Further, the “Antioxidant level in Nuclear Layer” value in data set [2] (nuclear layer) came to 23.59 µg/g.

With vitamin E, the “Antioxidant level in Cortical/Epithelial Layer (C) of dog lens” value in data set [2] was 0.93 µg/g. The “Antioxidant level in Nuclear Layer” value in data set [2] (nuclear layer) turned out to be 0.64 µg/g.
